Assay: DPPH free radical scavenging activity test
Assay type: biochemical
Conditions: for DPPH free radical scavenge activity (%) (mean ± standard deviation): 0.2 mM DPPH 1:1, 30 min
Method: To evaluate the DPPH free radical scavenging activity of the biodegradable metal of the present invention, samples were provided to the Korea Testing & Research Institute and the test thereof was performed in a manner described below by the Korea Testing & Research Institute at the request of the inventors.
a. Test substance • Magnesium patch with a purity of 95% or more (See FIG. 1 in which the patch is provided with microneedles that are not bent). • The sample used for the test is a sheet shape (dimensions: 2.6 mm×2.4 mm, thickness 0.1 t) made of Mg with a purity of 95% or more and including unavoidable impurities generated during manufacturing thereof.
b. Positive control • L-ascorbic acid: Sigma-Aldrich Corporation, Lot No. SLBR2586V
c. Etc. • 2,2-Diphenyl-1-picrylhydrazyl (DPPH): Sigma-Aldrich Corporation, Lot No. STBH0044 • Methanol: JINSEI, Lot No. 2016G2012
a. Preparation of test substance: The provided test substance was used without conversion of purity. Methanol was used to adjust the concentration.
After weighing L-ascorbic acid, it was prepared to have a predetermined concentration using methanol.
DPPH was prepared to have a concentration of 0.2 mM using methanol.
In a 96-well plate, each of the preparations (test substance and positive control substance) having different concentrations was mixed with a combination of 0.2 mM DPPH and methanol in a mixing ratio of 1:1.
After reacting at room temperature for 30 minutes in a light-shielding state, centrifugation was performed to obtain a supernatant, and absorbance was measured at a wavelength of 517 nm.
The free radical scavenger activity (%) of DPPH was calculated using Equation 1 below.
DPPH radical scavenging activity(%)=1−(A/B)×100 <Equation 1>
In Equation 1, A is the absorbance of the test substance, and B is the absorbance of the blank sample.
The result of each test was measured three times to obtain the mean value and standard deviation, and statistical analysis was performed using the SPSS statistical program (Ver. 19.0). First, after performing Levene's test, a one-way ANOVA test was performed. When significance was confirmed among the test groups, a post-hoc test was performed depending on the presence or absence of homogeneity of variances (when the variances are homogeneous, Duncan's multiple test was performed whereas when the variances were heterogeneous, Dunnett's T3 was performed).

IC50 (concentration at which 50% activity is exhibited), DPPH scavenging (methanol solution): 0.0012%
SMILES: O=C1O[C@H]([C@@H](O)CO)C(O)=C1O [L-ascorbic acid]
DPPH free radical scavenge activity (%) (mean ± standard deviation) (concentration 0.0005%): 20.96% | DPPH free radical scavenge activity (%) (mean ± standard deviation) (concentration 0.001%): 40.38% | DPPH free radical scavenge activity (%) (mean ± standard deviation) (concentration 0.0015%): 65.57% | DPPH free radical scavenge activity (%) (mean ± standard deviation) (concentration 0.002%): 83.24%

Source: patent US20220168193A1, “FLEXIBLE METAL PATCH HAVING ANTIOXIDANT ACTIVITY AND BRIGHTENING EFFECT AND METHOD FOR USING SAME” (LABNPEOPLE CO., LTD., priority 2019, published 2022)
